Assay results as given in EP1056778B1, “G PROTEIN-COUPLED RECEPTOR ANTAGONISTS” (priority 1998, dated 1999).
Where a SMILES comes first, the peptide text is derived from it. Where no end group is shown, it is not given here. K(Rhod) = not defined here

Columns and labels:
[1] = target: CXCR4 (Homo sapiens, UniProt P61073); assay: Inhibition of SDF-1α-induced intracellular calcium release (Fura-2/AM, HeLa and U87 cells expressing CXCR4); assay type: cell-based; settings: for Concentration, required for complete inhibition of [Ca^2+ I] release: Table 3, peptides from second transmembrane domain of CXCR4; for Concentration, required for complete inhibition of [Ca ^2+ i] release: Table 1, SDF-1α-induced intracellular calcium release
Procedure: The effect of the peptides on CXCR4-mediated calcium fluxes in HeLa cells that naturally express the CXCR4 receptor and U87 cells stably expressing the CXCR4 receptor was tested as follows. Cells grown on Nunc cover glass chamber slides were incubated with 1 micromolar Fura-2/AM for 20 min in a CO2-incubator, rinsed with PBS and mounted on the stage of a Zeiss Axiovert inverted microscope. [Ca^2+]i measurements were performed using an Attofluor digital imaging system (Atto Instruments, Rockville, MD). Fluorescence of Fura was excited at alternating wavelength of 340 and 380 nm. Fluorescence was monitored by an intensified CCD camera using a 505 cut-off filter. Calibrations of [Ca^2+]i signals were performed using Ca^2+ standards containing 1 micromolar Fura. CXCR4 antagonists were tested on HeLa cells and U87 cells. Stromal cell-derived factor-1α (SDF-1α) was used as a specific CXCR4 agonist.
CCR5 antagonists, which were used in selectivity studies as described below, were tested on HEK (human kidney […]) cells stably expressing the CCR5 receptor and RANTES was used as an agonist. The antagonist activity of the peptides was evaluated by measuring the inhibition of agonist-evoked intracellular Ca^2+i release. These measurements were carried out in Fura-2/AM-treated cells, utilizing an Attofluor digital imaging system as described above. The agonist was SDF-1α.
Further optimization and structure-activity studies allowed to obtain antagonists derived from all but the third and fifth transmembrane domains (Table 2). Table 1. Activity of synthetic peptides corresponding to predicted transmembrane domains of CXCR4 in inhibition of SDF-1α-induced intracellular calcium release.
Table 2. Biological activity of CXCR4 antagonists derived from different transmembrane domains. Anti signaling activity was determined in inhibition of SDF-1α-induced intracellular calcium release. Anti-HIV-1 activity was assessed in cytoprotection assay utilizing CEM-SS cells infected with HIV-1RF.

[2] = system: HIV-1RF; assay: Anti-HIV-1 cytoprotection assay, CEM-SS cells infected with HIV-1 strain RF; assay type: cell-based; settings: cytoprotection assay, CEM-SS cells infected with HIV-1RF; read-out: EC50 in anti-HIV-1 assay

Sequence of CXCR4 (P61073 whole entry, the tested form may be a part): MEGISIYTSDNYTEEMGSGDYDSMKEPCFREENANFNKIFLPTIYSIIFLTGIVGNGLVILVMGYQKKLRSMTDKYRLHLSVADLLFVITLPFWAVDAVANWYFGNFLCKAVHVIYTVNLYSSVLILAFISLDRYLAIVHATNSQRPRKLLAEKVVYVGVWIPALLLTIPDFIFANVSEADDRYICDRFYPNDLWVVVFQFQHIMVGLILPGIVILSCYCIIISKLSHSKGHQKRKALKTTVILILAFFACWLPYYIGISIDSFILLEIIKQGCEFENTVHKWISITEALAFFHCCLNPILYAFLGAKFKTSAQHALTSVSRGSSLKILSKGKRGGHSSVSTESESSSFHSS

Compound: CC[C@H](C)[C@H](NC(=O)[C@@H](NC(=O)[C@H](Cc1ccccc1)NC(=O)[C@H](CC(C)C)NC(=O)[C@H](CC(C)C)NC(C)=O)C(C)C)C(=O)N[C@H](C(=O)N[C@@H](CC(C)C)C(=O)N1CCC[C@H]1C(=O)N[C@@H](Cc1ccccc1)C(=O)N[C@@H](Cc1c[nH]c2ccccc12)C(=O)N[C@@H](C)C(=O)N[C@H](C(=O)N[C@@H](CC(=O)O)C(=O)N[C@@H](C)C(=O)N[C@H](C(=O)N[C@@H](C)C(=O)N[C@@H](CC(N)=O)C(=O)N[C@@H](CC(=O)O)C(=O)N[C@@H](CC(=O)O)C(=O)O)C(C)C)C(C)C)[C@@H](C)O [AcF-2-5]
- Concentration, required for complete inhibition of [Ca^2+ I] release [1]: 10 µM

Compound: CC[C@H](C)[C@H](NC(=O)[C@@H](NC(=O)[C@H](Cc1ccccc1)NC(=O)[C@H](CC(C)C)NC(=O)[C@@H](N)CC(C)C)C(C)C)C(=O)N[C@H](C(=O)N[C@@H](CC(C)C)C(=O)N1CCC[C@H]1C(=O)N[C@@H](Cc1ccccc1)C(=O)N[C@@H](Cc1c[nH]c2ccccc12)C(=O)N[C@@H](C)C(=O)N[C@H](C(=O)N[C@@H](CC(=O)O)C(=O)N[C@@H](C)C(=O)N[C@H](C(=O)N[C@@H](C)C(=O)N[C@@H](CC(N)=O)C(=O)N[C@@H](Cc1c[nH]c2ccccc12)C(=O)N[C@@H](Cc1ccc(O)cc1)C(=O)N[C@@H](Cc1ccccc1)C(=O)NCC(=O)N[C@@H](CC(N)=O)C(=O)N[C@@H](CC(=O)O)C(=O)N[C@@H](CC(=O)O)C(=O)O)C(C)C)C(C)C)[C@@H](C)O [Peptide F-2-2] (H-LLFVITLPFWAVDAVANWYFGNDD-OH)
- EC50 [2]: 2270 nM

Compound: CC[C@H](C)[C@H](NC(=O)[C@H](Cc1ccccc1)NC(=O)[C@H](CC(=O)O)NC(=O)[C@@H]1CCCN1C(=O)[C@@H](NC(=O)[C@@H](NC(=O)[C@H](CC(C)C)NC(=O)[C@H](CC(C)C)NC(=O)[C@H](CC(C)C)NC(=O)[C@H](C)NC(=O)[C@@H]1CCCN1C(=O)[C@@H](NC(=O)[C@H](Cc1c[nH]c2ccccc12)NC(=O)[C@@H](NC(=O)CNC(=O)[C@@H](NC(=O)[C@H](Cc1ccc(O)cc1)NC(=O)[C@@H](N)C(C)C)C(C)C)C(C)C)[C@@H](C)CC)[C@@H](C)O)[C@@H](C)CC)C(=O)N[C@@H](Cc1ccccc1)C(=O)N[C@@H](C)C(=O)N[C@@H](CC(N)=O)C(=O)N[C@@H](CC(=O)O)C(=O)N[C@@H](CC(=O)O)C(=O)O [Peptide F-4-2] (H-VYVGVWIPALLLTIPDFIFANDD-OH)
- EC50 [2]: 300 nM

Compound: CC[C@H](C)[C@H](NC(=O)CNC(=O)[C@@H](NC(=O)[C@H](Cc1ccc(O)cc1)NC(=O)[C@H](Cc1ccc(O)cc1)NC(=O)[C@@H]1CCCN1C(=O)[C@H](CC(C)C)NC(=O)[C@H](Cc1c[nH]c2ccccc12)NC(=O)[C@H](CS)NC(=O)[C@H](C)NC(=O)[C@H](Cc1ccccc1)NC(=O)[C@H](Cc1ccccc1)NC(=O)[C@H](C)NC(=O)[C@H](CC(C)C)NC(=O)[C@@H](NC(=O)[C@H](CC(C)C)NC(=O)[C@@H](NC(=O)[C@@H](N)C(C)C)[C@@H](C)CC)[C@@H](C)CC)[C@@H](C)CC)C(=O)N[C@@H](CO)C(=O)N[C@H](C(=O)N[C@@H](CC(=O)O)C(=O)O)[C@@H](C)CC [Peptide F-6-1] (H-VILILAFFACWLPYYIGISID-OH)
- EC50 [2]: > 50000 nM

Compound: ACLLFVITLPFWAVDAVANWYFG NDDK(Rhod) D-OH (ACLLFVITLPFWAVDAVANWYFGNDD-{K(Rhod)-Asp-OH}; reading uncertain; also: printed as ACLLFVITLPFWAVDAVANWYFG NDDK(Rhod) D-OH) [Rhod - F-2]
- Concentration, required for complete inhibition of [Ca^2+ I] release [1]: 8 µM

Compound: ALAFFHCCLNPILYAFLGAK-NH2 (cysteine pairing not given here) [Peptide F-7-1]
- Concentration, required for complete inhibition of [Ca ^2+ i] release [1]: > 100 µM

Compound: HIMVGLILPGIVILSCYCIII-NH2 (cysteine pairing not given here) [Peptide F-5-1]
- Concentration, required for complete inhibition of [Ca ^2+ i] release [1]: >50 µM
